Source: ChEMBL document CHEMBL5465560, “Selectivity Literature for EUbOPEN Chemogenomic Library” (2024)

Legend:
[1] = target: cAMP-dependent protein kinase catalytic subunit beta (Homo sapiens) (UniProt P22694); assay: Selectivity interaction (KinomeScan (DiscoverX)) EUB0000045b PRKACB
[2] = target: T1, Ephrin type-A receptor 1 (Homo sapiens) (UniProt P21709); assay: Selectivity interaction (KinomeScan (DiscoverX)) EUB0000045b EPHA1
T1 sequence (whole entry): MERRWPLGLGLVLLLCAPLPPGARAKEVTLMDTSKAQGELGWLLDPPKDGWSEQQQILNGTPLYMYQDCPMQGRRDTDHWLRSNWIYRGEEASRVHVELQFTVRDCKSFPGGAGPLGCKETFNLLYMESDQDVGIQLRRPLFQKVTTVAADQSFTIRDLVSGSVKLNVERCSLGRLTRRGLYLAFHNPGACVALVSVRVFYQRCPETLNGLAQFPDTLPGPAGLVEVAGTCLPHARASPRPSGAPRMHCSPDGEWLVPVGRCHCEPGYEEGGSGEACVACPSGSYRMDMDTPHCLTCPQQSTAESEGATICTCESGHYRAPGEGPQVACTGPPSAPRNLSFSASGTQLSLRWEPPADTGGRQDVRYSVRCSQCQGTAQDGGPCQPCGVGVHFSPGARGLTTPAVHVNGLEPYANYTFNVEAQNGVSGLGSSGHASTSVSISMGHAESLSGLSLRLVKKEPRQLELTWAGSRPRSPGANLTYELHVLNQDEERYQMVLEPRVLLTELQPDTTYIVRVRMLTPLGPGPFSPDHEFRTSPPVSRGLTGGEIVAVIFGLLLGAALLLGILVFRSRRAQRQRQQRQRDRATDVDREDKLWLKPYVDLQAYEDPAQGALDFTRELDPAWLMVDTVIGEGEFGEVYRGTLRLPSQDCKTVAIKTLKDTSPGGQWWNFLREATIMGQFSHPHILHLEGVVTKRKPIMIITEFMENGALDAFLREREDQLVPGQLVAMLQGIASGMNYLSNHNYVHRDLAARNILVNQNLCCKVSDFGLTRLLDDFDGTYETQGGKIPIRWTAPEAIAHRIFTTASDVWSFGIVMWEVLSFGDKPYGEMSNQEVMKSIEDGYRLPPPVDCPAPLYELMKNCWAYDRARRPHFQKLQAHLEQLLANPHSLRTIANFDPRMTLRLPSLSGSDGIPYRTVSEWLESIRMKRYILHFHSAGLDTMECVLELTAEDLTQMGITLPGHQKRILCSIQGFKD

Peregrin (Homo sapiens) = target: T2, Peregrin (Homo sapiens) (UniProt P55201); assay: Selectivity interaction (PWWP, WD40, and Tudor domain panel (DSLS measurements, literature)) EUB0000270b BRPF1
T2 sequence (whole entry): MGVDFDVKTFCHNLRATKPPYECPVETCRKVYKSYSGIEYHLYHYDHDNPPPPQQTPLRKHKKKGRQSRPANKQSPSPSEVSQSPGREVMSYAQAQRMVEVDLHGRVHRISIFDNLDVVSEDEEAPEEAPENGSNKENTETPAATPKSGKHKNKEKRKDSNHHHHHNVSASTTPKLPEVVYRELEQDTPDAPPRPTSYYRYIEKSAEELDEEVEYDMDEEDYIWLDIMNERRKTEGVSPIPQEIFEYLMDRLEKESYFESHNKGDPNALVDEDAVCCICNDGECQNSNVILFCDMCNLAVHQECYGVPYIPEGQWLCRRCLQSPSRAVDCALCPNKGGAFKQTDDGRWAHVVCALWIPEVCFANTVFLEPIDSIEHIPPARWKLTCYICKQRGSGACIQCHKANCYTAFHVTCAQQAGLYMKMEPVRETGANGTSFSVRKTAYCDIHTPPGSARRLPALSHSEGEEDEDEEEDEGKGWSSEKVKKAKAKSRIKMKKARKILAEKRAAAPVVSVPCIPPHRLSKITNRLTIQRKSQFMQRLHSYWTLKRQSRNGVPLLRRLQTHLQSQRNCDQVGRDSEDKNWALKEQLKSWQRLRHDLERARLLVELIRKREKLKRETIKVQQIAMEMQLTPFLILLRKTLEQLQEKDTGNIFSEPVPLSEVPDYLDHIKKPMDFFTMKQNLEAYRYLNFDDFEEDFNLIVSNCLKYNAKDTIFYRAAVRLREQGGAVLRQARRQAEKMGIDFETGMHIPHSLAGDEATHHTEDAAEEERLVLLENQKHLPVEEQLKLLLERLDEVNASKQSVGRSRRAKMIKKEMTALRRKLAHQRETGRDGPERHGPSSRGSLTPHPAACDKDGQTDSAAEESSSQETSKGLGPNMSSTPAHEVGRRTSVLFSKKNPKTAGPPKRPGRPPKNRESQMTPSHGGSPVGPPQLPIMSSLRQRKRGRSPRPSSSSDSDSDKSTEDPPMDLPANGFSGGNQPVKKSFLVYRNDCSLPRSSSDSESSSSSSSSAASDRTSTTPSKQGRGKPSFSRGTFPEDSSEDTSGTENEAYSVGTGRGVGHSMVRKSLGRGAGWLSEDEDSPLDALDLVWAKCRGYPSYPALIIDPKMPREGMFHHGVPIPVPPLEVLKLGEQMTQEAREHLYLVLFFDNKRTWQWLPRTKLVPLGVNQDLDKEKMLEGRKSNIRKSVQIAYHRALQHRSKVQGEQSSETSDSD

[3] = target: Sodium-dependent serotonin transporter (Homo sapiens, UniProt P31645); assay: Selectivity interaction (Eurofins CEREP Diversity Profile (receptors and ion channels)) EUB0000279b SLC6A4; details: at 10 µM
Sequence of Sodium-dependent serotonin transporter (P31645 whole entry, looked up): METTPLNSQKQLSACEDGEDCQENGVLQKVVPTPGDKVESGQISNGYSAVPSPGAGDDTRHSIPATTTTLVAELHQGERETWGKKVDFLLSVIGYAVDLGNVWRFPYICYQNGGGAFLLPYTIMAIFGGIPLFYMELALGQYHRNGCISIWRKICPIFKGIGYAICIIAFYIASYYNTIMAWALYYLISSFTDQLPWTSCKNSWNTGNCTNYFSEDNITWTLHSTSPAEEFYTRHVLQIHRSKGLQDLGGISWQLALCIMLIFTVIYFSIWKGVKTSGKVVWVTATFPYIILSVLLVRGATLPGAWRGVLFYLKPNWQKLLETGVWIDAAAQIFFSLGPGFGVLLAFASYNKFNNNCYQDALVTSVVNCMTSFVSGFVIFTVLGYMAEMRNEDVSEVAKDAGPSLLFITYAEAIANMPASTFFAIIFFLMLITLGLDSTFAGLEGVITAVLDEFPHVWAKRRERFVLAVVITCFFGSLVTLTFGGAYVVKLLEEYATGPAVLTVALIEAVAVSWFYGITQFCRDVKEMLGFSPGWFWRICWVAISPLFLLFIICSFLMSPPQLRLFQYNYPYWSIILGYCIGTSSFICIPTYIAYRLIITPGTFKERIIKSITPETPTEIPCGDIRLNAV

hERG (KCNH2) = hERG (KCNH2) (Homo sapiens, UniProt Q12809); assay: Selectivity interaction (Safety Panel 44tm (Eurofins)) EUB0000162b KCNH2; details: at 10 µM, read-out: % of control
Sequence of hERG (KCNH2) (Q12809 whole entry): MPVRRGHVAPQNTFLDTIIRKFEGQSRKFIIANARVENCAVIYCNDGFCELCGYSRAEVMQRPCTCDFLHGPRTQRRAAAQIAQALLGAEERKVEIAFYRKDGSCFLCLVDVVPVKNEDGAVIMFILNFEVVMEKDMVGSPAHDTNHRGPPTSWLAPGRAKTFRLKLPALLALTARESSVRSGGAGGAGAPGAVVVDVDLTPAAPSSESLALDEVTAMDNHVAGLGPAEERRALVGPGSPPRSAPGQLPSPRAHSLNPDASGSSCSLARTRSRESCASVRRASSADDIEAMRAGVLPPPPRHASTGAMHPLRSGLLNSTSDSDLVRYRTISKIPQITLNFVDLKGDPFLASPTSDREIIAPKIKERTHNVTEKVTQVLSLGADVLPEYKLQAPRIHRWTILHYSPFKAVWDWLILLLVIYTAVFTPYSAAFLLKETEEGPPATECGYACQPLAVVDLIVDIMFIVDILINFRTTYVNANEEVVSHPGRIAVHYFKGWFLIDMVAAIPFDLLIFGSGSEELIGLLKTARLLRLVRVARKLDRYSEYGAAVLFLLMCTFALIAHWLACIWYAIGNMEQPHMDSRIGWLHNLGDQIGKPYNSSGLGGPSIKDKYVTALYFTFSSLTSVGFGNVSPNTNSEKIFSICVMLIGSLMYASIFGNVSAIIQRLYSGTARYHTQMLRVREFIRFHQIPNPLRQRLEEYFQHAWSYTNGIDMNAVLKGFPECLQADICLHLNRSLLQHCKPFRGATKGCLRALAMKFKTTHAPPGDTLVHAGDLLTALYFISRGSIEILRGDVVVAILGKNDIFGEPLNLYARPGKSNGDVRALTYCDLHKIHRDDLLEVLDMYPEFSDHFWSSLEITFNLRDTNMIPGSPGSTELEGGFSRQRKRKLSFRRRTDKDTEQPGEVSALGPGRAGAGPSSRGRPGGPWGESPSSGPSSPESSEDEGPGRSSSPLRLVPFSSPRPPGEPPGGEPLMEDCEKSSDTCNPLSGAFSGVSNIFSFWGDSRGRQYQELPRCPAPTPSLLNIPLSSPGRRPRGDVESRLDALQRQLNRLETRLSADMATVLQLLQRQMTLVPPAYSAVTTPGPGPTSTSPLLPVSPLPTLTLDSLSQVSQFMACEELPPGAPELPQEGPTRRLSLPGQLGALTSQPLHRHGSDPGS

Focal adhesion kinase 1 = Focal adhesion kinase 1 (Homo sapiens, UniProt Q05397); assay: Selectivity interaction (KinaseProfiler screening (Millipore)) EUB0000601a PTK2; details: at 3 µM
Sequence of Focal adhesion kinase 1 (Q05397 2-1052 limits assumed): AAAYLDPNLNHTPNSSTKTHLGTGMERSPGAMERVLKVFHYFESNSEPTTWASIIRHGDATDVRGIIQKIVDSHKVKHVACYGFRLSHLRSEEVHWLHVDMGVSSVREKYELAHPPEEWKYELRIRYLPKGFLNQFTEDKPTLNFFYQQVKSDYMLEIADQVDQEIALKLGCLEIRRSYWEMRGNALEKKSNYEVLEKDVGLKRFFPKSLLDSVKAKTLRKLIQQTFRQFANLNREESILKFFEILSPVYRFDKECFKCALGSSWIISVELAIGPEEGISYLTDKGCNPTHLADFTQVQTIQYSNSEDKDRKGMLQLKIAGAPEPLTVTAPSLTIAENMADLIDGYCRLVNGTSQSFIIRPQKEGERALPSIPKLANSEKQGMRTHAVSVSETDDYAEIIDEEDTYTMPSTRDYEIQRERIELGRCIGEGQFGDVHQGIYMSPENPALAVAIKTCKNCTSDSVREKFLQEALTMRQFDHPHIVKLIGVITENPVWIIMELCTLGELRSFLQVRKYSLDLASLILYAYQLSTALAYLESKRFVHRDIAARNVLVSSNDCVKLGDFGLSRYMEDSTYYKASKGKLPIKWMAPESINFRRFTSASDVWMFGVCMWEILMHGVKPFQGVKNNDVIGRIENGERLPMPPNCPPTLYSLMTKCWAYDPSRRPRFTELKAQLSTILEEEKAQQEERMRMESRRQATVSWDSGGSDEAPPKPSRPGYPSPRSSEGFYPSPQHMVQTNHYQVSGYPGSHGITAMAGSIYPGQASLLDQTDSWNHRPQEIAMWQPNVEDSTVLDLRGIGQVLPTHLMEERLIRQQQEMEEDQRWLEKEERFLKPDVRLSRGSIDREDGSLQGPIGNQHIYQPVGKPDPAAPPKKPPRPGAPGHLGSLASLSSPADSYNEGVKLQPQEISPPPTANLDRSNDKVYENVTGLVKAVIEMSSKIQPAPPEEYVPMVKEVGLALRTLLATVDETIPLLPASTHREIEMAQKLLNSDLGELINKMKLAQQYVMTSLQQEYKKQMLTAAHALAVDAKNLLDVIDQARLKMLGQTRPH

[4] = target: Serine/threonine-protein kinase pim-3 (Homo sapiens) (UniProt Q86V86); assay: Selectivity interaction (Kinase panel (DSF assay)) EUB0001489b PIM3
[5] = target: RAF proto-oncogene serine/threonine-protein kinase (Homo sapiens) (UniProt P04049); assay: Selectivity interaction (KinomeScan (DiscoverX)) EUB0000618a RAF1; details: at 10 µM
Sequence of RAF proto-oncogene serine/threonine-protein kinase (Homo sapiens) (P04049 whole entry): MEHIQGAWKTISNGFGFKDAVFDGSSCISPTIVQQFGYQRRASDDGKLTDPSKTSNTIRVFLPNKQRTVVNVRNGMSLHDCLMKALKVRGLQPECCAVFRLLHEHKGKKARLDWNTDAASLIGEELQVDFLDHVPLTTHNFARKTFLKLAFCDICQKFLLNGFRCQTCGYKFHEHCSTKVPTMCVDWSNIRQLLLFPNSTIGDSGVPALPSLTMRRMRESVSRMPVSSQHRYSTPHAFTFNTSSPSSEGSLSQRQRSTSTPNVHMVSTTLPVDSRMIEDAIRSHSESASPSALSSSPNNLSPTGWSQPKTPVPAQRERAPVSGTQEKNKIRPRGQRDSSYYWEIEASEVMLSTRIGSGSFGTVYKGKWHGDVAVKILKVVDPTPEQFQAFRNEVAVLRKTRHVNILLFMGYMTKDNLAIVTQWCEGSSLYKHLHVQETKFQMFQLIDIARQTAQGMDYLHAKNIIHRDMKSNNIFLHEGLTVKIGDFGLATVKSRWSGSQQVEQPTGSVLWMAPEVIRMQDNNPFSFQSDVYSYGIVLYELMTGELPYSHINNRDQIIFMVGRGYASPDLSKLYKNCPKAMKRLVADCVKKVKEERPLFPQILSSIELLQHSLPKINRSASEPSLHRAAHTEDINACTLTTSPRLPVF

`C=CC(=O)Nc1cc(-n2c(=O)ccc3cnc4ccc(-c5ccc(NS(C)(=O)=O)cc5)cc4c32)ccc1C` was tested, and the % of control ([1]; at 1 µM) was 79%, the % of control ([1]; at 10 µM) was 100% and the % of control ([2]; at 1 µM) was 92%. The % of control ([2]; at 10 µM) was 100%.
For `Cc1cc(CN)cc(C)c1-c1ncn(C)c1-c1cncn1C`, the dTagg (Peregrin (Homo sapiens)) was 0 K.
`CC(=O)c1cc(-c2ccccc2OCC2CC2)c2ncccn12` was tested, and the % of control [3] was 108%.
`CN(C)C(=O)Cn1cc(-c2ccc(-c3cncc4ccccc34)cc2)cn1` gave an activity (hERG (KCNH2)) of 85%.
`CCc1cc(Nc2nccc(-c3c(-c4ccc(OC)c(C(=O)Nc5c(F)cccc5F)c4)nc4ccccn34)n2)c(OC)cc1N1CCC(N2CCN(S(C)(=O)=O)CC2)CC1` showed a % of inhibition (Focal adhesion kinase 1) of 51%.
`CN1CCN(C(=O)c2ccc3cc2OCCOCCNc2ccn4ncc-3c4n2)CC1` was tested, and the dTM [4] was 2.1 K.
`O[C@H]1CC[C@H](Nc2ncc3nc(Nc4c(F)cc(F)cc4F)n([C@H]4CCOC4)c3n2)CC1` gave a % of control [5] of 100%.
